Data as given in patent publication US20230087609A1, “USE OF A SOLUBLE GUANYLATE CYCLASE (sGC) STIMULATOR OR OF A COMBINATION OF A sGC STIMULATOR AND AN sGC ACTIVATOR FOR CONDITIONS WHEREIN THE HEME GROUP OF sGC IS OXIDIZED OR WHEREIN sGC IS DEFICIENT IN HEME” (Universiteit Maastricht, priority 2020, published 2023).

Target: T1, human apo-sGC (sGCα1 / mutant sGCβ1H105F) (Homo sapiens, UniProt Q02153, H105F)
T1 construct: His tag; made in house; host or cells: Sf9 cells infected with recombinant baculoviruses (provided by E. Martin); sonicated lysate, supernatant used unpurified
T1 sequence (Q02153 1-619 H105F): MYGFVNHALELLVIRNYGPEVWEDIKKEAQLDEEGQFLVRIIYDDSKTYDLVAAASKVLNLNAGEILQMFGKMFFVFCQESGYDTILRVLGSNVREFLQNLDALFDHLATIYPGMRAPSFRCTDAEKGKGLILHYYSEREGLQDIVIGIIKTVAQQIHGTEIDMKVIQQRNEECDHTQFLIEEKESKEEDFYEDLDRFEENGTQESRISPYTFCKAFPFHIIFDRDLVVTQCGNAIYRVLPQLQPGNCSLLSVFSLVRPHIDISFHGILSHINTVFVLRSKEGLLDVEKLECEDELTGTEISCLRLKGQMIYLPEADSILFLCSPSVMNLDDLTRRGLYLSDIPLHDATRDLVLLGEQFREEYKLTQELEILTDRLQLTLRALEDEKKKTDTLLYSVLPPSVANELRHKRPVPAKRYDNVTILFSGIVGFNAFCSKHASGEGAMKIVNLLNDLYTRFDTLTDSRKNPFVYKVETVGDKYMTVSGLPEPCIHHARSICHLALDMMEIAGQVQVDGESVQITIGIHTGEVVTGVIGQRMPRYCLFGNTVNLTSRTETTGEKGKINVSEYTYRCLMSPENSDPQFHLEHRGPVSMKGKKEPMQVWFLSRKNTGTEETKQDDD
T1 sequence (Q02108 1-690 partner): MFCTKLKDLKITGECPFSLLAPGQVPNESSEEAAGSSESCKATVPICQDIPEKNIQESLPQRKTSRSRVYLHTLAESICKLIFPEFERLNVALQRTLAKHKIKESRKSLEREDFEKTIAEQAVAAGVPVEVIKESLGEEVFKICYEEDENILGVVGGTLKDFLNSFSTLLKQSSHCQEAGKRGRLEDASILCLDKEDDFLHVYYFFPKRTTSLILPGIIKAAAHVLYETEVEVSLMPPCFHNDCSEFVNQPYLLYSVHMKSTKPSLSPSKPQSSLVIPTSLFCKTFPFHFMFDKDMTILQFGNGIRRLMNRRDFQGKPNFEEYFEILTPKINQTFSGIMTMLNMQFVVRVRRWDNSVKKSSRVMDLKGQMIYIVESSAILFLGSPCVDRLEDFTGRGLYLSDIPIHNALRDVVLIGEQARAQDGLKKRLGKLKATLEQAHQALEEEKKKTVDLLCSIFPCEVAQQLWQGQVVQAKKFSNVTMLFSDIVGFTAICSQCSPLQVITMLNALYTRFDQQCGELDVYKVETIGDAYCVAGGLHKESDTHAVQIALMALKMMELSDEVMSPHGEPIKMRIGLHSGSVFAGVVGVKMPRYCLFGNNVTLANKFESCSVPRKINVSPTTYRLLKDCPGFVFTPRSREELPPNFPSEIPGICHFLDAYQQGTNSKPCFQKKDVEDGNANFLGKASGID
Assay: sGC activity of human apo-sGC expressed in SF-9 cells
Format: biochemical
Procedure: To measure sGC activity, cells were stimulated with 250 μM DEA/NO or 10 μM BAY58-2667 for 3 min at 37° C. Thereafter, cells were immediately lysed in 80% ethanol. Cells were scraped and, after evaporation of ethanol, re-suspended in assay buffer and sonicated. Measurement of sGC activity in crude homogenates of mouse tissue was performed as previously described (Nedvetsky et al., Brain Res. 2002; 950(1-2):148-154. doi: 10.1016/50006-8993(02)03015-9).[9] Briefly, all samples were measured as the formation of cGMP at 37° C. during 10 min in a total incubation volume of […] containing 50 mM triethanolamine-HCl (pH 7.4), 3 mM MgCl2, 3 mM glutathione (Carl Roth, Karlsruhe, Germany), 1 mM IBMX, […], 5 mM creatine phosphate, 0.25 mg/ml creatine kinase and 1 mM or 0.5 mM GTP. After adding sGC activator in the absence or presence of the sGC stimulator the reaction was started by application of GTP solution. […] Thereafter the amount of cGMP was subsequently determined by a commercial enzyme immunoassay kit (Enzo Life Sciences, Lorrach, Germany or Biotrend, Cologne, Germany). […]
Recombinant baculoviruses containing the cDNAs for the sGCa1 subunit with a His tag and mutant sGCβ31H105F with a His tag of human sGC were provided by E. Martin (Houston, Tex., USA). […] Protein concentrations were determined by the RC DC protein assay kit (Bio-Rad, Cat. no. 5000122).

Structure (SMILES): Nc1nc(-c2nn(Cc3ccccc3F)c3ncccc23)ncc1C1CC1 [BAY 41-2272, 5-cyclopropyl-2-[1-(2-fluoro-benzyl)-1H-pyrazolo[3,4-b]pyridin-3-yl]-pyrimidin-4-ylamine]
- sGC activity / cGMP formation in presence of ODQ (10 μM BAY 41-2272 + 10 μM ODQ (FIG. 8)): improves the formation of cGMP
- sGC activity / cGMP production (10 μM BAY 41-2272 alone (FIG. 8)): activated and cGMP is (increasingly) produced
